In US5229398A, “Aminomethylpiperidine compounds” (Adir et Compagnie, priority 1990, dated 1993):
Counter-ions that a name gives are not always drawn. Like-named read-outs stand apart in the source and are kept apart here.

Tests used:
5-HT1A receptors [1] = biological target: T1, 5-HT1A receptors (Rattus norvegicus, UniProt P19327); assay: In vivo test of "tail-flicks" (antagonism of 8-OH-DPAT-induced spontaneous tail movements); design: from tissue; host or cells: whole rat in vivo; settings: subcutaneous injection; for ED50: sc, against subcutaneous 8-OH-DPAT, read-out: ED50, the amount which reduces the action of 8-OH-DPAT by 50%
T1 sequence (P19327 1-422): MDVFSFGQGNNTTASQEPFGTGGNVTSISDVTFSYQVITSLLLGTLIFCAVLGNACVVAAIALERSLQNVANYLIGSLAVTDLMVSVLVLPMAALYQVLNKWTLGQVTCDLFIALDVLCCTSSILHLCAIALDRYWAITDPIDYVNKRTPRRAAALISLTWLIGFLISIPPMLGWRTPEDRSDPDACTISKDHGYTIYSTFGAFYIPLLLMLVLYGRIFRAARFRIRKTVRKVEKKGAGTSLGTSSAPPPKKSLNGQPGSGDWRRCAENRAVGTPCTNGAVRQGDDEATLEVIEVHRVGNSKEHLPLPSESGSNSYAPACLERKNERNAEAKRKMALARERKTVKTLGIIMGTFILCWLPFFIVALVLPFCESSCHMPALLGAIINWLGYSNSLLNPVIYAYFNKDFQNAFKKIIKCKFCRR
Text: The potential of the compounds of the invention to act in vivo on the 5-HT1A receptors was brought out following a method perfected by Millan et al. (Neurosci. Lett., 1989, 107, 227-232). […] This model then was used to evaluate the potential of the compounds of the invention administered by subcutaneous injection, to interact with the 5-HT1A receptors in the rat. The ED50, that is the amount which reduces the action of 8-OH-DPAT by 50%, was thus determined.

5-HT1A receptors [2] = biological target: T1, 5-HT1A receptors; assay: Affinity for 5-HT1A receptors in vitro ([3H]-8-OH-DPAT binding, rat hippocampus membranes); design: from tissue; host or cells: hippocampus membranes of male Wistar rats; species or system male Wistar rats
Description: The tests were carried out on tissue from the hippocampus of decapitated male Wistar rats. The rats were sacrificed 48 hours before the experiment and the isolated tissues were preserved at -86° C.
In order to prepare the membranes, the tissues were homogenized at 0° C. in 20 volumes of 50 mM Tris HCl buffer solution (pH 7.7, adjusted with 5N HCl at 25° C.), with a Polytron homogenizer for 6 seconds. The whole was then centrifuged (35,000 g for 20 minutes at 4° C.). Homogenization followed by centrifugation was repeated a second time under the same conditions. The pellet thus obtained was suspended for a final time in 20 volumes of the above buffer, incubated for 15 minutes at 37° C., then again centrifuged. […]
The compounds to be tested were put into solution in the incubation buffer. Test solutions were prepared by placing in 12×75 mm glass tubes, 10 μl of the solution of the compounds to be tested, 100 μl of a solution containing […] of [^3 H]-8-OH-DPAT (specific radioactivity 205 Ci/mmol). Non-specific binding was determined with the aid of a solution of 5-hydroxytryptamine (10 μM), and represented 5 to 10% of the final binding. […] Radioactivity was then determined with the aid of external standards.
The pKi values were determined by the CheungPrusoff equation: [formula]

5-HT1A receptors [3] = biological target: T1, 5-HT1A receptors; design: from tissue; host or cells: whole rat in vivo; settings: subcutaneous injection; cited from earlier work
5-HT1A receptors [4] = biological target: T1, 5-HT1A receptors; design: The tests were carried out on tissue from the hippocampus of decapitated male Wistar rats; from tissue; host or cells: hippocampus membranes of male Wistar rats; settings: reference ligand 8-OH-DPAT; cited from earlier work

Row | SMILES | ED50 (5-HT1A receptors [1]) | properties towards the 5-HT1A receptors (in words) (5-HT1A receptors [1]) | Ki (5-HT1A receptors [2]) | Ki (5-HT1A receptors [2]; rat hippocampus, [3H]-8-OH-DPAT, 30 minutes at 37° C., pKi by CheungPrusoff equation, read-out: pKi (converted)) | induction of spontaneous movements of the tail (in words) (5-HT1A receptors [3]) | affinity for the 5-HT1A sites of the reference (in words) (5-HT1A receptors [4]) | selectivity for the 5-HT1A sites of the reference (in words) (5-HT1A receptors [4])
1 | COc1cccc2c1OC(CNCC1CCN(c3nc4ccccc4s3)CC1)CO2 (stereo not drawn) [Example 16, 1-(BENZOTHIAZOL-2-YL)-4-[(8-METHOXY-1,4-BENZODIOXAN-2-YL)-METHYLAMINOMETHYL]PIPERIDINE DIHYDROCHLORIDE] | 0.31 mg/kg | antagonist properties | 0.501 nM | – | – | – | –
2 | COc1ccccc1OCCNCC1CCN(c2nc3ccccc3o2)CC1.Cl.Cl [Example 44, 1-(BENZOXAZOL-2-YL)-4-[[2-(2-METHOXYPHENOXY)ETHYL]AMINOMETHYL]PIPERIDINE DIHYDROCHLORIDE] | 0.31 mg/kg | antagonist properties | – | 1 nM | – | – | –
3 | CCCN(CCC)C1CCc2cccc(O)c2C1 (stereo not drawn) [Example 8-OH-DPAT, 8-hydroxy-2-(dipropylamino)tetraline] | – | – | – | – | marked spontaneous movements of the tail | very great affinity | great selectivity
